Measured values taken from patent publication US11040019B2, “Selective estrogen-receptor modulators (SERMs) confer protection against photoreceptor degeneration” (THE UNITED STATES OF AMERICA, as represented by the …, priority 2016, dated 2021).

Test system: 661W photoreceptors
Assay: Microglia-photoreceptor interaction assay: 661W viability (MTT) in conditioned media of LPS-stimulated BV2 microglia
Conditions: BV2 pre-treated before LPS 50 ng/ml; 661W exposed 24 h; TMX 3 and 5 μg/ml, raloxifene 0.3-3 μM, G-1 1 μM, GPR30 antagonist 100 nM
Protocol: 661W photoreceptors cultured in 96-well plate (4×10^4 cells/well) were exposed to conditioned media from LPS-stimulated (50 ng/ml) BV2 microglia (cultured in 6-well plate with a cell density of 4×10^5 cells/well) for 48 h. […] Cell viability of 661W photoreceptors were assessed using a MTT assay.
Murine microglial cell line (BV-2) cells and photoreceptor-like cell line (661W) were used in this study. BV-2 cells were plated in 6-well plates at the density of 4×10^5/well and cultured for 24 h in DMEM medium (Life Technologies Corporation, Grand Island, N.Y.) containing 5% heat inactivated FBS (Life Technologies Corporation, Grand Island, N.Y.) at 37° C. in a humidified atmosphere of 5% CO2. […] Cell viability of 661W photoreceptors were assessed using a MTT cell proliferation assay kits (ATCC, Manassas, Va.) following the manufacturer's specifications. […]
661W photoreceptors cultured in 96-well plate (4×10^4 cells/well) were exposed to conditioned media from LPS-stimulated (50 ng/ml) BV2 microglia (cultured in 6-well plate with a cell density of 4×10^5 cells/well) for 24 h. […] Cell viability of 661W photoreceptors were assessed using a MTT assay.

Row | SMILES | neurotoxicity of microglia-conditioned media to 661W photoreceptors (viability, MTT)
1 | O=C(c1ccc(OCCN2CCCCC2)cc1)c1c(-c2ccc(O)cc2)sc2cc(O)ccc12 [raloxifene, [6-hydroxy-2-(4-hydroxyphenyl)-benzothiophen-3-yl]-[4-[2-(1-piperidyl)ethoxy]phenyl]-methanone] | significantly reduced neurotoxicity
2 | CC(=O)c1ccc2c(c1)C1C=CCC1C(c1cc3c(cc1Br)OCO3)N2 (centres unmarked) [G-1] | significantly reduced neurotoxicity
